Columns and labels:
Assay in all cases: relative viability (nuclei count vs DMSO), 5 days (fraction); higher = more cells survive
NCI-H838 = test system: NCI-H838
Summary of the method: (§1)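 Relative viability is defined as nuclei in treated wells over nuclei in vehicle wells. Duplicate plates were run and medians reported. Lung cancer cell lines in 1536-well plates were dosed by pin tool one day after seeding, with one drug or with a fixed anchor-drug dose plus five library-drug doses (not always all listed) in √10 steps, and nuclei were counted after 5 days.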

NCI-H322M = test system: NCI-H322M
Summary of the method: as §1

UMC-11 = test system: UMC-11
Summary of the method: as §1

NCI-H1755 = test system: NCI-H1755
Summary of the method: as §1

NCI-H2228 = test system: NCI-H2228
Summary of the method: as §1

PC-14 = test system: PC-14
Summary of the method: as §1

NCI-H1734 = test system: NCI-H1734
Summary of the method: as §1

NCI-H1793 = test system: NCI-H1793
Summary of the method: as §1

NCI-H647 = test system: NCI-H647
Summary of the method: as §1

NCI-H2170 = test system: NCI-H2170
Summary of the method: as §1

NCI-H1993 = test system: NCI-H1993
Summary of the method: as §1

COR-L23 = test system: COR-L23
Summary of the method: as §1

COR-L 105 = test system: COR-L 105
Summary of the method: as §1

HARA = test system: HARA
Summary of the method: as §1

NCI-H1355 = test system: NCI-H1355
Summary of the method: as §1

NCI-H2009 = test system: NCI-H2009
Summary of the method: as §1

HOP-62 = test system: HOP-62
Summary of the method: as §1

NCI-H2347 = test system: NCI-H2347
Summary of the method: as §1

EKVX = test system: EKVX
Summary of the method: as §1

NCI-H1395 = test system: NCI-H1395
Summary of the method: as §1

SK-MES-1 = test system: SK-MES-1
Summary of the method: as §1

CC(C)Oc1cc(Nc2nc(N[C@@H](C)c3ccc(F)cn3)ncc2Cl)n[nH]1 [AZ23] + CC1(C)CCC(c2ccc(Cl)cc2)=C(CN2CCN(c3ccc(C(=O)NS(=O)(=O)c4ccc(N[C@H](CCN5CCOCC5)CSc5ccccc5)c(S(=O)(=O)C(F)(F)F)c4)cc3)CC2)C1 [Navitoclax] (partner 0.5 µM)
relative viability (NCI-H838; first compound 0.01 µM): 1.15
relative viability (NCI-H838; first compound 0.03162 µM): 1.45
relative viability (NCI-H838; first compound 0.3162 µM): 1.19
relative viability (NCI-H322M; first compound 0.01 µM): 1.24
relative viability (NCI-H322M; first compound 0.03162 µM): 1.09
relative viability (NCI-H322M; first compound 0.3162 µM): 1.29
relative viability (UMC-11; first compound 0.01 µM): 0.271
relative viability (UMC-11; first compound 0.03162 µM): 0.334
relative viability (UMC-11; first compound 0.3162 µM): 0.304
relative viability (NCI-H1755; first compound 0.01 µM): 1.17
relative viability (NCI-H1755; first compound 0.03162 µM): 1.11
relative viability (NCI-H1755; first compound 0.3162 µM): 1.03
relative viability (NCI-H2228; first compound 0.01 µM): 0.848
relative viability (NCI-H2228; first compound 0.03162 µM): 0.963
relative viability (NCI-H2228; first compound 0.3162 µM): 0.709
relative viability (PC-14; first compound 0.01 µM): 0.989
relative viability (PC-14; first compound 0.03162 µM): 1.21
relative viability (PC-14; first compound 0.3162 µM): 1.1
relative viability (NCI-H1734; first compound 0.01 µM): 0.905
relative viability (NCI-H1734; first compound 0.03162 µM): 0.973
relative viability (NCI-H1734; first compound 0.3162 µM): 0.721
relative viability (NCI-H1793; first compound 0.01 µM): 0.425
relative viability (NCI-H1793; first compound 0.03162 µM): 0.302
relative viability (NCI-H1793; first compound 0.3162 µM): 0.341
relative viability (NCI-H647; first compound 0.01 µM): 1.46
relative viability (NCI-H647; first compound 0.03162 µM): 1.51
relative viability (NCI-H647; first compound 0.3162 µM): 1.24
relative viability (NCI-H2170; first compound 0.01 µM): 0.59
relative viability (NCI-H2170; first compound 0.03162 µM): 0.687
relative viability (NCI-H2170; first compound 0.3162 µM): 0.589
relative viability (NCI-H1993; first compound 0.01 µM): 0.688
relative viability (NCI-H1993; first compound 0.3162 µM): 0.916
relative viability (COR-L23; first compound 0.01 µM): 0.839
relative viability (COR-L23; first compound 0.03162 µM): 1.11
relative viability (COR-L23; first compound 0.3162 µM): 1.05
relative viability (COR-L 105; first compound 0.01 µM): 0.543
relative viability (COR-L 105; first compound 0.03162 µM): 0.869
relative viability (COR-L 105; first compound 0.3162 µM): 0.736
relative viability (HARA; first compound 0.01 µM): 0.973
relative viability (HARA; first compound 0.03162 µM): 1.16
relative viability (HARA; first compound 0.3162 µM): 1.16
relative viability (NCI-H1355; first compound 0.01 µM): 0.999
relative viability (NCI-H1355; first compound 0.03162 µM): 0.896
relative viability (NCI-H1355; first compound 0.3162 µM): 0.833
relative viability (NCI-H2009; first compound 0.01 µM): 1.16
relative viability (NCI-H2009; first compound 0.03162 µM): 1.18
relative viability (NCI-H2009; first compound 0.3162 µM): 1.19
relative viability (HOP-62; first compound 0.01 µM): 0.94
relative viability (HOP-62; first compound 0.03162 µM): 1.21
relative viability (HOP-62; first compound 0.3162 µM): 1.18
relative viability (NCI-H2347; first compound 0.01 µM): 0.858
relative viability (NCI-H2347; first compound 0.03162 µM): 0.755
relative viability (NCI-H2347; first compound 0.3162 µM): 0.818
relative viability (EKVX; first compound 0.01 µM): 1.12
relative viability (EKVX; first compound 0.03162 µM): 1.29
relative viability (EKVX; first compound 0.3162 µM): 1.02
relative viability (NCI-H1395; first compound 0.03162 µM): 1.12
relative viability (NCI-H1395; first compound 0.3162 µM): 1.21
relative viability (SK-MES-1; first compound 0.01 µM): 1.4
relative viability (SK-MES-1; first compound 0.03162 µM): 1.42
relative viability (SK-MES-1; first compound 0.3162 µM): 1.33
